Among the data in patent US20220288069A1, “INHIBITORS OF TYROSINE KINASE” (BridGene Biosciences, Inc., priority 2019, published 2022) are GI50 and IC50 values, retold here.

As a reminder, the GI50 is the concentration that inhibits growth by half. A lower GI50 goes with more potent growth inhibition. By IC50 is commonly meant the concentration at which inhibition is half-maximal.

One experiment relates to THP−1. Put plainly: Cell viability assay (CellTiter-Glo), THP-1. It is filed as cell-based. Particulars: Homo sapiens, THP-1 cells, 72 hr. As for the experimental part:
(§1) Cell viability assay was performed based on the following brief procedures. Cells were plated at the density of 5K/well with volume of […] in 96-well white plate and clear bottom plates. 20 μL of veh. or compound was added at proper concentration to the well. The final volume is 200 μL, with final conc. of DMSO32 0.1%, 11 points, triplicates. The cells were then treated at 37° C. in the TC incubator for 72 hr. Equal volume (200 μL) of CellTiter-Glo reagent (Promega) was added to the well and protect from light at room temperature for 15 min. The chemiluminicent was measured with EnSight (Perkin Elmer). GraphPad Prism non-linear regression, Log[inhibitor] response with four parameters were used to calculate GI50.
For orientation: Cellular ATP, detected with luciferase, serves as a proxy for viable cell number.

In another experiment the target is T1, KIT (Homo sapiens, UniProt P10721).
T1 construct: purchased BPS 40250
T1 sequence (P10721 26-976): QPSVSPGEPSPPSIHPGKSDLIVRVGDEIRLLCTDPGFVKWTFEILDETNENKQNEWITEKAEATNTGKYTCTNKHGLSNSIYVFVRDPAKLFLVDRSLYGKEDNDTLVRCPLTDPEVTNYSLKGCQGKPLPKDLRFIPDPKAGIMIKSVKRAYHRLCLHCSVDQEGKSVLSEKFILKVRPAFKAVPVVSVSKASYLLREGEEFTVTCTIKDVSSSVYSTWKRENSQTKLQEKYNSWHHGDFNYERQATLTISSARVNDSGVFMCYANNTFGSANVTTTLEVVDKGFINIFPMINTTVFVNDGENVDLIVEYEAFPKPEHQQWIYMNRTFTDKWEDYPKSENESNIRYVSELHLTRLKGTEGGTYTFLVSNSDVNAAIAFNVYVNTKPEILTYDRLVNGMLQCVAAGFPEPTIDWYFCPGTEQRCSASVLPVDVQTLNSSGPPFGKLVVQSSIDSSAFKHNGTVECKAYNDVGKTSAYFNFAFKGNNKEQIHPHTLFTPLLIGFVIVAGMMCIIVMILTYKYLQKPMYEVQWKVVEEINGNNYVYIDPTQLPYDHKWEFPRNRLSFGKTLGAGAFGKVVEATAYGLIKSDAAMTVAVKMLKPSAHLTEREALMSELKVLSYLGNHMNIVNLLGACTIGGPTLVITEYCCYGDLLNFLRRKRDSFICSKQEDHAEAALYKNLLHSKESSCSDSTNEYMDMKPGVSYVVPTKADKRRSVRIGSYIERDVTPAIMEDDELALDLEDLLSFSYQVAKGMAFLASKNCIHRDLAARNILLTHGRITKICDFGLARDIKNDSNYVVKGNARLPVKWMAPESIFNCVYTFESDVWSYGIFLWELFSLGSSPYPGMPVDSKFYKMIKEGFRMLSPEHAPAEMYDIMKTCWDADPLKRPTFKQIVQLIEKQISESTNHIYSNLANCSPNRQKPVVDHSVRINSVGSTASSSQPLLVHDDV
Put plainly: Caliper mobility shift kinase inhibition assay, KIT. It is filed as biochemical. Particulars: recombinant kinase; enzyme 0.9 nM, ATP 400 μM, incubation 17 hr. As for the experimental part:
Compounds' inhibition of recombinant kinases (FGR, FLT3, FMS, KIT, or RON) was measured using Caliper mobility shift assay, which is based on the difference in capillary electrophoresis mobility of a fluorescent-tagged peptide as a result of a phosphorylation by the kinase under study. Reactions were started by the addition of various concentrations of a compound (originally in DMSO solution) to a kinase solution in assay buffer followed by addition of a mixture of ATP and a fluorescent-tagged peptide substrate in assay buffer. Concentrations of the enzyme, ATP and the peptide were pre-optimized so that 15% substrate conversion to ensure initial velocity measurements. […]
(§2) Table 2 below summarizes the assay conditions for the characterization of the kinase inhibition properties of the disclosed compounds.

The target of a further experiment is T2, RON (Homo sapiens, UniProt Q04912).
T2 construct: purchased Invitrogen PV4314
T2 sequence (Q04912 25-1400): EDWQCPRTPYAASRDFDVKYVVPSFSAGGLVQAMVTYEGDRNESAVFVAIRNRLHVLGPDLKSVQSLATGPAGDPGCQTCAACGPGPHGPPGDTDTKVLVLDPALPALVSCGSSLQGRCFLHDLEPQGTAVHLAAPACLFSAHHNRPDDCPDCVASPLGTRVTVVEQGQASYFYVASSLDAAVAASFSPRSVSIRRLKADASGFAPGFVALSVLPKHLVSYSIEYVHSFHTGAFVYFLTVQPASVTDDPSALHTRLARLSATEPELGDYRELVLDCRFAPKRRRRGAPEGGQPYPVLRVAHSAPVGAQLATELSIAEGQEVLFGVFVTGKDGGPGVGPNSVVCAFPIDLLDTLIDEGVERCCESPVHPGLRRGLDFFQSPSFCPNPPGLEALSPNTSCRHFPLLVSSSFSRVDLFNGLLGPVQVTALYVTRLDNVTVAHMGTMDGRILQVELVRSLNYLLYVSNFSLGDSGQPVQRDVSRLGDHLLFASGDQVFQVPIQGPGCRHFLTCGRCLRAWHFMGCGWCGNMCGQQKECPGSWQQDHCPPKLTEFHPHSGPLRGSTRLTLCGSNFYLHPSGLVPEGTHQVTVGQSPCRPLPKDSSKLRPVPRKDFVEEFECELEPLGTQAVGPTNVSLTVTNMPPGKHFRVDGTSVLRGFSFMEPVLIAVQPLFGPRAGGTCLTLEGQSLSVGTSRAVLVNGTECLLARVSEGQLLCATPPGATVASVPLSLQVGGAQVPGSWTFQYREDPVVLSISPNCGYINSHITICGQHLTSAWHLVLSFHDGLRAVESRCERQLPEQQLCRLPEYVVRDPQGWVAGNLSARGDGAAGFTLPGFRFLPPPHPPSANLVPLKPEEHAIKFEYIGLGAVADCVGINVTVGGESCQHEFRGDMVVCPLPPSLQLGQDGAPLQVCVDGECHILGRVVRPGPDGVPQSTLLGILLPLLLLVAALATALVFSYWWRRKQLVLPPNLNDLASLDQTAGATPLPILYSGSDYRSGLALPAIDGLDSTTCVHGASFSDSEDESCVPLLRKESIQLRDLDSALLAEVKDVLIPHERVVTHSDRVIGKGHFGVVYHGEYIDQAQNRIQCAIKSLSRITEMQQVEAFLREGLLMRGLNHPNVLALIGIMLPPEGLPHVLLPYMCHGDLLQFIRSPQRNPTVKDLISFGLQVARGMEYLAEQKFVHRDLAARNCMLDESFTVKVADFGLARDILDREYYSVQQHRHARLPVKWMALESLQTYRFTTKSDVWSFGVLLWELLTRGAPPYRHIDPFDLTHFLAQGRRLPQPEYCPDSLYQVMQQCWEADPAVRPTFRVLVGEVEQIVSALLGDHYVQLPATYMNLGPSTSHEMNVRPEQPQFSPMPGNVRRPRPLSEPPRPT
Put plainly: Caliper mobility shift kinase inhibition assay, RON. It is filed as biochemical. Particulars: recombinant kinase; enzyme 0.4 nM, ATP 20 μM, incubation 3 hr. As for the experimental part: (§3) Compounds' inhibition of recombinant kinases (FGR, FLT3, FMS, KIT, or RON) was measured using Caliper mobility shift assay, which is based on the difference in capillary electrophoresis mobility of a fluorescent-tagged peptide as a result of a phosphorylation by the kinase under study. Reactions were started by the addition of various concentrations of a compound (originally in DMSO solution) to a kinase solution in assay buffer followed by addition of a mixture of ATP and a fluorescent-tagged peptide substrate in assay buffer. Concentrations of the enzyme, ATP and the peptide were pre-optimized so that 15% substrate conversion to ensure initial velocity measurements. After incubation for 3 hours at room temperature, the kinase reaction was quenched by the addition of a concentrated EDTA solution before analysis on a LabChip EZ Reader II to yield percentage inhibition by comparing to the DMSO control.
as §2

The subject of a further experiment is Kasumi−1. Kind of experiment: Cell viability assay (CellTiter-Glo), Kasumi-1. It is filed as cell-based. Particulars: Homo sapiens, Kasumi-1 cells, 72 hr. As for the experimental part:
as §1

Another experiment concerns the target T3, FGR (Homo sapiens, UniProt P09769).
T3 construct: purchased BPS 4022
Kind of experiment: Caliper mobility shift kinase inhibition assay, FGR. It is filed as biochemical. Particulars: recombinant kinase; enzyme 0.3 nM, ATP 50 μM, incubation 3 hr. As for the experimental part: as §3, §2

The next experiment deals with MV4−11. Kind of experiment: Cell viability assay (CellTiter-Glo), MV4-11. As to conditions: Homo sapiens, MV4-11 cells, 72 hr. In kind it is cell-based. As for the experimental part:
as §1

A further experiment has as its target T4, FLT3 (Homo sapiens, UniProt P36888).
T4 construct: purchased ThermoFisher PV3182
T4 sequence (P36888 27-993): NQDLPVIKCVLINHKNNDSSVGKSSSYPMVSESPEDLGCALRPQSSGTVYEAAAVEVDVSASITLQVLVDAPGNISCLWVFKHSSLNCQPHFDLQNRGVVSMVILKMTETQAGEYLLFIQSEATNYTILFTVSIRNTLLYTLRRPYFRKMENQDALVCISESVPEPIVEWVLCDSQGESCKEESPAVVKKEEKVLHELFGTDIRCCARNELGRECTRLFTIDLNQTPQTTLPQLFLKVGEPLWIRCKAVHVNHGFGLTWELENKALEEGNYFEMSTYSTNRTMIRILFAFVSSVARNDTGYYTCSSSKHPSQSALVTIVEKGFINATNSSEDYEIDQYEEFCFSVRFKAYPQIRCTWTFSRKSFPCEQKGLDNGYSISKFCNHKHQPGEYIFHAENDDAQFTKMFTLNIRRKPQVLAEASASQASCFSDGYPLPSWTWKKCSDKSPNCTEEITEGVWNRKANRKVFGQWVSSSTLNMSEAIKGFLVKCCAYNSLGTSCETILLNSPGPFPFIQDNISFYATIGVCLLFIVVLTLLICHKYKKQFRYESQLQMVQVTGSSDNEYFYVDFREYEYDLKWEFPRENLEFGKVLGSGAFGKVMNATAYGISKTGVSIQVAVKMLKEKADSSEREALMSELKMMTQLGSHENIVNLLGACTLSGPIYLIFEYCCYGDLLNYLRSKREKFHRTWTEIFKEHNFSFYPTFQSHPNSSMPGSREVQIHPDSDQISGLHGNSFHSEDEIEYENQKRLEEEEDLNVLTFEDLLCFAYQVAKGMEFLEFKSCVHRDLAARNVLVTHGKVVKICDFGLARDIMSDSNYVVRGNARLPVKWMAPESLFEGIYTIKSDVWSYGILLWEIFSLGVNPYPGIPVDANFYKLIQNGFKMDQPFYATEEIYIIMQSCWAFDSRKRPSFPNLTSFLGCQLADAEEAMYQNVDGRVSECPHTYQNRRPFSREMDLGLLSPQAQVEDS
Kind of experiment: Caliper mobility shift kinase inhibition assay, FLT3. It is filed as biochemical. Particulars: recombinant kinase; enzyme 0.1 nM, ATP 95 μM, incubation 3 hr. As for the experimental part:
as §3, §2

In the next experiment the target is T5, FMS (Homo sapiens, UniProt P07333).
T5 construct: purchased Invitrogen PV3249
T5 sequence (P07333 20-972): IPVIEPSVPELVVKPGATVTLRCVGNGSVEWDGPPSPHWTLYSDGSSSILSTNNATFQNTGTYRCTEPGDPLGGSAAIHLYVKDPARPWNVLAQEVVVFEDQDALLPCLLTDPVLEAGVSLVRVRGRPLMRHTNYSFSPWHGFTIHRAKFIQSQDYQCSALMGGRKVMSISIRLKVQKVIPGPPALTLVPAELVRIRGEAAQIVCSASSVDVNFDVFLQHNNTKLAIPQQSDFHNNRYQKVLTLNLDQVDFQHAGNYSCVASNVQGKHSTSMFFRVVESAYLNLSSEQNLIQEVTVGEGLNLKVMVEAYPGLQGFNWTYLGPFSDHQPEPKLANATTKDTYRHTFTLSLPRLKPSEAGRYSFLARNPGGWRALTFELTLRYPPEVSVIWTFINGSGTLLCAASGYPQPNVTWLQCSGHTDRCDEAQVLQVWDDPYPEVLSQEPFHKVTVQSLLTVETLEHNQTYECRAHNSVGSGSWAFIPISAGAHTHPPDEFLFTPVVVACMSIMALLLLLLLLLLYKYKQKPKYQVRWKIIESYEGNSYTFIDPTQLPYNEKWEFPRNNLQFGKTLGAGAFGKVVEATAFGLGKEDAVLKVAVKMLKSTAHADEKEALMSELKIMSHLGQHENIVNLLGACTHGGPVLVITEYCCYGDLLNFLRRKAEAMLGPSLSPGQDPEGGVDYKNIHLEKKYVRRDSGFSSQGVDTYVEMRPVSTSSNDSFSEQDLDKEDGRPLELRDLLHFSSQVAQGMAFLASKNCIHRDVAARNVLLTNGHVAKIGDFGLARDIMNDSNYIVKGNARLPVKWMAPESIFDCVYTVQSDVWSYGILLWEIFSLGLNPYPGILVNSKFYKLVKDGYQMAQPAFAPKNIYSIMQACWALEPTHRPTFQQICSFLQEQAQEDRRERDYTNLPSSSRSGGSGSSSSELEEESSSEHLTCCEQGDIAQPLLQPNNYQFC
Kind of experiment: Caliper mobility shift kinase inhibition assay, FMS. In kind it is biochemical. As to conditions: recombinant kinase; enzyme 0.25 nM, ATP 100 μM, incubation 3 hr. As for the experimental part: as §3, §2

The structures appear in SMILES notation.

T3 sequence (P09769 whole entry): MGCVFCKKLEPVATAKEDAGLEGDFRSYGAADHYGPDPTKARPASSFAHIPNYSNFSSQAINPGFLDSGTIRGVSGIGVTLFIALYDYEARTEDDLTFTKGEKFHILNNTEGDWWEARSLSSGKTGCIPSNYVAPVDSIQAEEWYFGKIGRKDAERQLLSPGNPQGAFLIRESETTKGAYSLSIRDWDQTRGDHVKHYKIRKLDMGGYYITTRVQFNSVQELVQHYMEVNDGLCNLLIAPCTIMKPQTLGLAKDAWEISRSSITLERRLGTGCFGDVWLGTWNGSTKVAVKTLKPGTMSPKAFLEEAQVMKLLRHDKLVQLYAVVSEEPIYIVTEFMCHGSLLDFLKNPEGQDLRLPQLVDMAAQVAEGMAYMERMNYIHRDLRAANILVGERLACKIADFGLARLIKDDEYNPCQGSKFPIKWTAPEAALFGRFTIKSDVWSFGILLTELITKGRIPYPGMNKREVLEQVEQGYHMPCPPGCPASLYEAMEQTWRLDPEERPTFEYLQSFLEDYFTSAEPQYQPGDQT

On to `Cc1cc(Nc2cc(NCCNC(=O)[C@H](C)N(C)C(=O)/C=C/CN(C)C)nc(Nc3ccc(CC#N)cc3)n2)n[nH]1` [Compound 1], for which the GI50 in the experiment with THP−1 was no less than 1000 nM; in the experiment on Kasumi−1 it was 100 to 1000 nM; with MV4−11 it was less than 10 nM. The IC50 at KIT was less than 10 nM; on RON, 100 to 1000 nM; at FGR it was 10 to 100 nM; at FLT3, less than 10 nM; on FMS, less than 10 nM.

For the molecule `Cc1cc(Nc2cc(NCCNC(=O)[C@@H]3CCCN3C(=O)/C=C/CN(C)C)nc(Nc3ccc(CC#N)cc3)n2)n[nH]1` [Compound 3], the GI50 in the experiment with THP−1 is no less than 1000 nM; in the experiment with Kasumi−1, no less than 1000 nM; with MV4−11, 10 to 100 nM. The IC50 on KIT and at FLT3 was less than 10 nM in each case.

On to `C=CC(=O)N(C)[C@@H](C)C(=O)NCCNc1cc(Nc2cc(C3CCC3)[nH]n2)nc(Nc2ccc(CC#N)cc2)n1` [Compound 4, (2S)—N-[2-[[2-[4-(cyanomethyl)anilino]-6-[(5-cyclobutyl-1H-pyrazol-3-yl)amino]pyrimidin-4-yl]amino]ethyl]-2-[methyl(prop-2-enoyl)amino]propanamide], for which the values for the GI50 with THP−1, with Kasumi−1 and with MV4−11 were 100 to 1000 nM, 100 to 1000 nM and less than 10 nM, respectively. Besides, the IC50 on KIT was 10 to 100 nM; on FLT3 it was less than 10 nM.

In the case of `CC#CC(=O)N(C)[C@@H](C)C(=O)NCCNc1cc(Nc2cc(C3CCC3)[nH]n2)nc(Nc2ccc(CC#N)cc2)n1` [Compound 5, N-[(1S)-2-[2-[[2-[4-(cyanomethyl)anilino]-6-[(5-cyclobutyl-1H-pyrazol-3-yl)amino]pyrimidin-4-yl]amino]ethylamino]-1-methyl-2-oxo-ethyl]-N-methyl-but-2-ynamide], the GI50 was no less than 1000 nM in the experiment on THP−1, no less than 1000 nM in the experiment on Kasumi−1 and less than 10 nM in the experiment with MV4−11. The IC50 at KIT was 10 to 100 nM; on FLT3 it was less than 10 nM.

With `CCc1nc(NCCNC(=O)[C@H](C)N(C)C(=O)/C=C/CN(C)C)cc(Nc2ncc(C3CCC3)s2)n1` [Compound 8, (E)-N-[(1S)-2-[2-[[6-[(5-cyclobutylthiazol-2-yl)amino]-2-ethyl-pyrimidin-4-yl]amino]ethylamino]-1-methyl-2-oxo-ethyl]-4-(dimethylamino)-N-methyl-but-2-enamide], the GI50 with THP−1 was no less than 1000 nM; with Kasumi−1, 100 to 1000 nM; with MV4−11, less than 10 nM. On FLT3, the IC50 is less than 10 nM.

In the case of `C=CC(=O)N(C)[C@@H](C)C(=O)NCCNc1cc(Nc2ncc(-c3ccccc3)s2)nc(C)n1` [Compound 9, (2S)—N-[2-[[2-methyl-6-[(5-phenylthiazol-2-yl)amino]pyrimidin-4-yl]amino]ethyl]-2-[methyl(prop-2-enoyl)amino]propanamide], the GI50 in the experiment with THP−1 is no less than 1000 nM; with Kasumi−1, less than 10 nM; in the experiment with MV4−11, less than 10 nM. For the same molecule, the 50% inhibitory concentration (IC50) at KIT and at FLT3 was less than 10 nM in each case.

Regarding `CCC(=O)N(C)[C@@H](C)C(=O)NCCNc1cc(Nc2ncc(-c3ccccc3)s2)nc(C)n1` [Compound 10, (2S)—N-[2-[[2-methyl-6-[(5-phenylthiazol-2-yl)amino]pyrimidin-4-yl]amino]ethyl]-2-[methyl(propanoyl)amino]propanamide], the values for the GI50 in the experiment on THP−1, in the experiment on Kasumi−1 and in the experiment with MV4−11 were no less than 1000 nM, 10 to 100 nM and less than 10 nM, respectively. In addition, the IC50 on KIT and at FLT3 was 10 to 100 nM in each case.

Consider `Cc1nc(NCCNC(=O)[C@H](C)N(C)C(=O)/C=C/CN(C)C)cc(Nc2ncc(-c3ccccc3)s2)n1` [Compound 11], for which the concentration for 50% growth inhibition (GI50) in the experiment on THP−1 was no less than 1000 nM; in the experiment on Kasumi−1, less than 10 nM; in the experiment on MV4−11, less than 10 nM. The IC50 on FLT3 is less than 10 nM.

With `C=CC(=O)N(C)[C@@H](C)C(=O)NCCOc1cc(C)nc(Nc2ncc(-c3ccccc3)s2)c1` [Compound 12, (2S)—N-[2-[[2-methyl-6-[(5-phenylthiazol-2-yl)amino]-4-pyridyl]oxy]ethyl]-2-[methyl(prop-2-enoyl)amino]propanamide], the figures for the GI50 in the experiment with THP−1, in the experiment with Kasumi−1 and with MV4−11 were no less than 1000 nM, less than 10 nM and less than 10 nM, respectively. The IC50 on KIT and on FLT3 was less than 10 nM throughout.

On to `C=CC(=O)N(C)[C@@H](C)C(=O)NCCOc1cc(Nc2ncc(-c3ccccc3)s2)nc(C)n1` [Compound 13, (2S)—N-[2-[2-methyl-6-[(5-phenylthiazol-2-yl)amino]pyrimidin-4-yl]oxyethyl]-2-[methyl(prop-2-enoyl)amino]propanamide], for which the GI50 in the experiment with THP−1 is no less than 1000 nM; in the experiment on Kasumi−1, less than 10 nM; in the experiment on MV4−11 it was less than 10 nM. Moreover, the IC50 at KIT and on FLT3 was less than 10 nM in each case.

Consider `C=CC(=O)N(C)[C@@H](C)C(=O)NCCNc1cc(Nc2ncc(-c3ccncc3)s2)nc(C)n1` [Compound 17, (2S)-2-[methyl(prop-2-enoyl)amino]-N-[2-[[2-methyl-6-[[5-(4-pyridyl)thiazol-2-yl]amino]pyrimidin-4-yl]amino]ethyl]propanamide], for which the concentration for 50% growth inhibition (GI50) is no less than 1000 nM in the experiment with THP−1, less than 10 nM with Kasumi−1 and less than 10 nM in the experiment with MV4−11. Also, the IC50 on KIT and on FLT3 was less than 10 nM each time.

Consider `CC#CC(=O)N(C)[C@@H](C)C(=O)NCCNc1cc(Nc2ncc(-c3ccncc3)s2)nc(C)n1` [Compound 18, N-methyl-N-[(1S)-1-methyl-2-[2-[[2-methyl-6-[[5-(4-pyridyl)thiazol-2-yl]amino]pyrimidin-4-yl]amino]ethylamino]-2-oxo-ethyl]but-2-ynamide], for which the GI50 with THP−1 was no less than 1000 nM; in the experiment with Kasumi−1, less than 10 nM; with MV4−11 it was less than 10 nM. Besides, the IC50 at KIT and at FLT3 was less than 10 nM throughout.

As for `Cc1c(C(=O)NCCNC(=O)[C@H](C)N(C)C(=O)/C=C/CN(C)C)c[nH]c1/C=C1\C(=O)Nc2ccc(F)cc21` [Compound 26, N-(2-((S)-2-((E)-4-(dimethylamino)-N-methylbut-2-enamido)propanamido)ethyl)-5-((Z)-(5-fluoro-2-oxoindolin-3-ylidene)methyl)-4-methyl-1H-pyrrole-3-carboxamide], the values for the concentration for 50% growth inhibition (GI50) in the experiment on THP−1 and with MV4−11 were no less than 1000 nM and less than 10 nM, respectively. The IC50 on KIT is less than 10 nM; at RON, 100 to 1000 nM; at FGR, 100 to 1000 nM; on FLT3, less than 10 nM; on FMS it was less than 10 nM.
